The source made the active and inactive calls. No cut-off for these calls is given here.
Key:
[1] = test system: Human immunodeficiency virus 1; experiment: Antiviral activity against HIV1 3B infected in human CD4+ T-lymphocyte CEM cells assessed as inhibition of virus-induced cytopathicity after 4 to 5 days by microscopic analysis; type: functional, organism-based; settings: Human immunodeficiency virus 1, 3B, CCRF-CEM
[2] = test system: Human immunodeficiency virus 2; experiment: Antiviral activity against HIV2 ROD infected in human CD4+ T-lymphocyte CEM cells assessed as inhibition of virus-induced cytopathicity after 4 to 5 days by microscopic analysis; type: functional, organism-based; settings: Human immunodeficiency virus 2, ISOLATE ROD, CCRF-CEM
CCRF-CEM = experiment: Cytotoxicity against human CD4+ T-lymphocyte CEM cells; type: cell-based
[3] = Inhibition of HIV integrase-mediated 3'-processing activity using 5'-[gamma-32P]-labeled full length 21T DNA after 2 hrs; parameters: species or system Human immunodeficiency virus
[4] = test system: Human immunodeficiency virus 1; experiment: Binding affinity to recombinant HIV1 3B glycoprotein-120 after 5 mins by sensorchip direct surface plasmon resonance assay
[5] = test system: Human immunodeficiency virus 1; experiment: Binding affinity to recombinant HIV1 3B glycoprotein-120 at 5 uM after 5 mins by sensorchip direct surface plasmon resonance assay in presence of 100 and 400 uM mann (alpha-1,3-1,6)3
[6] = Inhibition of HIV integrase-mediated strand transfer activity using precleaved 19T duplex oligonucleotide after 2 hrs; parameters: species or system Human immunodeficiency virus
[7] = test system: Human immunodeficiency virus 1; experiment: Binding affinity to recombinant HIV1 3B glycoprotein-120 at 5 uM after 5 mins by sensorchip direct surface plasmon resonance assay in presence of 100 and 400 uM mann (alpha-1,2)3
[8] = test system: Human immunodeficiency virus 1; experiment: Binding affinity to recombinant HIV1 3B glycoprotein-120 after 5 mins by sensorchip reverse surface plasmon resonance assay
[9] = test system: Human immunodeficiency virus; experiment: Inhibition of HIV integrase-mediated strand transfer activity using 5'-[gamma-32P]-labeled full length 21T DNA at 50 nM after 2 hrs

`CCc1c(CNC(=O)c2ccc(N)cc2)c(CC)c(CNC(=O)c2ccc(N)cc2)c(CC)c1CNC(=O)c1ccc(N)cc1` showed an EC50 [1] greater than 250 µM, an EC50 [2] greater than 250 µM and a CC50 (CCRF-CEM) greater than 250 µM.
In the case of `CCc1c(CNC(=O)CCc2ccc(O)c(O)c2)c(CC)c(CNC(=O)CCc2ccc(O)c(O)c2)c(CC)c1CNC(=O)CCc1ccc(O)c(O)c1`, the EC50 [1] is reported as greater than 10 µM, the EC50 [2] is reported as greater than 10 µM and the CC50 (CCRF-CEM) is reported as 22 µM.
For `CCc1c(CNC(=O)c2ccc(O)c(O)c2O)c(CC)c(CNC(=O)c2ccc(O)c(O)c2O)c(CC)c1CNC(=O)c1ccc(O)c(O)c1O`, the EC50 [1] was 6.3 µM, the IC50 [3] was 31 µM and the Activity [4] was “Active”. For the same compound, the EC50 [2] was 41 µM, the Activity [5] was “inactive” and the IC50 [6] was 10.9 µM. The Activity [7] was “inactive” and the CC50 (CCRF-CEM) was 144 µM.
Work on `CCc1c(CNC(=O)C2=C[C@H](O)[C@H](O)[C@@H](O)C2)c(CC)c(CNC(=O)C2=C[C@H](O)[C@H](O)[C@@H](O)C2)c(CC)c1CNC(=O)C1=C[C@H](O)[C@H](O)[C@@H](O)C1` yielded an EC50 [1] greater than 250 µM, an EC50 [2] greater than 250 µM and a CC50 (CCRF-CEM) greater than 250 µM.
For `CCc1c(CNC(=O)c2ccc[nH]2)c(CC)c(CNC(=O)c2ccc[nH]2)c(CC)c1CNC(=O)c1ccc[nH]1`, the EC50 [1] was greater than 10 µM, the EC50 [2] was greater than 10 µM and the CC50 (CCRF-CEM) was greater than 10 µM.
For `CCc1c(CNC(=O)CCC(=O)NCCCOCCOCCOCCCN)c(CC)c(CNC(=O)c2ccc(O)c(O)c2O)c(CC)c1CNC(=O)c1ccc(O)c(O)c1O`, the Activity [8] was “Active”.
Work on `CCc1c(CNCCNC(=O)c2ccc(O)c(O)c2O)c(CC)c(CNCCNC(=O)c2ccc(O)c(O)c2O)c(CC)c1CNCCNC(=O)c1ccc(O)c(O)c1O` yielded an EC50 [1] greater than 10 µM, an EC50 [2] greater than 10 µM and a CC50 (CCRF-CEM) of 117 µM.
With `CCc1c(CNCCCCNC(=O)c2ccc(O)c(O)c2O)c(CC)c(CNCCCCNC(=O)c2ccc(O)c(O)c2O)c(CC)c1CNCCCCNC(=O)c1ccc(O)c(O)c1O` the EC50 [1] was greater than 10 µM, the EC50 [2] was greater than 10 µM and the CC50 (CCRF-CEM) was 25 µM.
`CCc1c(CNC(=O)c2cc(O)c(O)c(O)c2)c(CC)c(CNC(=O)c2cc(O)c(O)c(O)c2)c(CC)c1CNC(=O)c1cc(O)c(O)c(O)c1` showed an EC50 [1] greater than 10 µM, an EC50 [2] greater than 10 µM and a CC50 (CCRF-CEM) of 49 µM.
`C[C@@H]1CCO[C@H]2Cn3cc(C(=O)NCc4ccc(F)cc4F)c(=O)c(O)c3C(=O)N12` showed an inhibition [9] greater than 50%.
`CCc1c(CN2CCN(C(=O)c3ccc(O)c(O)c3O)CC2)c(CC)c(CN2CCN(C(=O)c3ccc(O)c(O)c3O)CC2)c(CC)c1CN1CCN(C(=O)c2ccc(O)c(O)c2O)CC1` showed an EC50 [1] greater than 10 µM, an IC50 [3] of 42 µM and an EC50 [2] greater than 10 µM. For the same compound, the IC50 [6] was 5.6 µM and the CC50 (CCRF-CEM) was 36 µM.
Compound `CCc1c(CNC(=O)c2cccc(O)c2O)c(CC)c(CNC(=O)c2cccc(O)c2O)c(CC)c1CNC(=O)c1cccc(O)c1O` has an EC50 [1] greater than 2 µM, an EC50 [2] greater than 2 µM and a CC50 (CCRF-CEM) of 5 µM.
In the case of `CCc1c(CNC(=O)c2ccc(N)nc2)c(CC)c(CNC(=O)c2ccc(N)nc2)c(CC)c1CNC(=O)c1ccc(N)nc1`, the EC50 [1] is reported as greater than 250 µM, the EC50 [2] is reported as greater than 250 µM and the CC50 (CCRF-CEM) is reported as greater than 250 µM.
Compound `CCc1c(CNC(=O)c2c(O)cc(O)cc2O)c(CC)c(CNC(=O)c2c(O)cc(O)cc2O)c(CC)c1CNC(=O)c1c(O)cc(O)cc1O` has an EC50 [1] greater than 50 µM, an EC50 [2] greater than 50 µM and a CC50 (CCRF-CEM) of 112 µM.
For `CN[C@@H]1[C@H](O[C@@H]2OC[C@@H](O)[C@H](O)[C@H]2O)[C@@H](O)[C@H](O[C@H]2c3cc(C)c(C(=O)N[C@H](C)C(=O)O)c(O)c3-c3c(cc4c(c3O)C(=O)c3cc(OC)cc(O)c3C4=O)[C@@H]2O)O[C@@H]1C` [PRADIMICIN A], the EC50 [1] was 3.4 µM and the CC50 (CCRF-CEM) was greater than 50 µM.
With `CN[C@H]1[C@@H](O[C@H]2O[C@@H](CO)[C@H](O)[C@@H](OS(=O)(=O)O)[C@@H]2O)[C@H](O)[C@@H](O[C@H]2c3cc(C)c(C(=O)N[C@H](C)C(=O)O)c(O)c3-c3c(cc4c(c3O)C(=O)c3cc(OC)cc(O)c3C4=O)[C@@H]2O)O[C@H]1C` the Activity [4] was “Active”.
Compound `CCc1c(CNC(=O)c2ccc(O)cc2O)c(CC)c(CNC(=O)c2ccc(O)cc2O)c(CC)c1CNC(=O)c1ccc(O)cc1O` has an EC50 [1] greater than 4 µM, an EC50 [2] greater than 4 µM and a CC50 (CCRF-CEM) of 28 µM.
Work on `CCc1c(CNC(=O)c2ccc(O)c(O)c2O)c(CC)c(CNC(=O)[C@H]2C[C@@H](C(=O)NCc3c(CC)c(CNC(=O)c4ccc(O)c(O)c4O)c(CC)c(CNC(=O)c4ccc(O)c(O)c4O)c3CC)C[C@@H](C(=O)NCc3c(CC)c(CNC(=O)c4ccc(O)c(O)c4O)c(CC)c(CNC(=O)c4ccc(O)c(O)c4O)c3CC)C2)c(CC)c1CNC(=O)c1ccc(O)c(O)c1O` yielded an EC50 [1] greater than 10 µM, an EC50 [2] greater than 10 µM and a CC50 (CCRF-CEM) of 25 µM.
With `CCc1c(CNC(=O)C2C[C@H](O)C(O)[C@@H](O)C2)c(CC)c(CNC(=O)C2C[C@H](O)C(O)[C@@H](O)C2)c(CC)c1CNC(=O)C1C[C@H](O)C(O)[C@@H](O)C1` (some centres not stated) the EC50 [1] was greater than 250 µM, the EC50 [2] was greater than 250 µM and the CC50 (CCRF-CEM) was greater than 250 µM.
